Test results taken from patent US20230013602A1, “NOVEL IMIDAZOPYRAZINE DERIVATIVES” (Hoffmann-La Roche Inc., priority 2018, published 2023).
Structures can show the parent of a compound that is named as a salt.

Key:
[1] = tested on: Acinetobacter baumannii ATCC 17978; assay: Antimicrobial susceptibility testing, 90% growth inhibitory concentration (IC90) determination; type: cell-based; conditions: Acinetobacter baumannii ATCC17978, Iso-Sensitest broth, OD 600 nm over 16 h
Experimental: (§1) The in vitro antimicrobial activity of the compounds was determined according to the following procedure:
(§2) The assay used a 10-points Iso-Sensitest broth medium to measure quantitatively the in vitro activity of the compounds against Acinetobacter baumannii ATCC 17978 and Acinetobacter baumannii ATCC17961.
(§3) Stock compounds in DMSO were serially twofold diluted (e.g. range from 50 to 0.097 μM final concentration) in 384 wells microtiter plates and inoculated with 49 μl the bacterial suspension in Iso-Sensitest medium to have a final cell concentration of ˜5×10^(5) CFU/ml in a final volume/well of 50 ul/well. Microtiter plates were incubated at 35+2° C.
(§4) Bacterial cell growth was determined with the measurement of optical density at X=600 nm each 20 minutes over a time course of 16 h. Growth inhibition was calculated during the logarithmic growth of the bacterial cells with determination of the concentration inhibiting 50% (IC50) and 90% (IC90) of the growth.
(§5) Table 1 provides the 90% growth inhibitory concentrations (IC90) in micromoles per liter of the compounds of present invention obtained against the strain Acinetobacter baumannii ATCC17978 and Acinetobacter baumannii ATCC17961.

[2] = tested on: Acinetobacter baumannii ATCC17961; assay: as above; type: cell-based; conditions: 90% growth inhibitory concentration, Acinetobacter baumannii ATCC17961, Iso-Sensitest broth, OD 600 nm over 16 h; read-out: ATCC17961 IC90
Experimental: as §1, §2, §3, §4, §5

Compound `CCc1cc(Nc2nccn3c(-c4ccc(OC)c(F)c4F)cnc23)ccc1C(=O)N[C@@H]1CCCC[C@@H]1N` (racemic) [Example 8, rac-N-((1R,2S)-2-aminocyclohexyl)-4-((3-(2,3-difluoro-4-methoxyphenyl)imidazo[1,2-a]pyrazin-8-yl)amino)-2-ethylbenzamide] has an IC90 [1] of 850 nM and an IC90 [2] of 852 nM.
`COc1ccc(-c2cnc3c(Nc4ccc(C(=O)NC5CCC(NC(=O)[C@@H]6C[C@@H](O)CN6)C5)c(C)c4)nccn23)c(F)c1F` (mixture of isomers) [Example 36, rac-(2R,4S)-N-[3-[[4-[[3-(2,3-difluoro-4-methoxyphenyl)imidazo[1,2-a]pyrazin-8-yl]amino]-2-methylbenzoyl]amino]cyclopentyl]-4-hydroxypyrrolidine-2-carboxamide] showed an IC90 [1] of 72 nM and an IC90 [2] of 72 nM.
For `CCc1cc(Nc2nccn3c(-c4ccc(OC)c(F)c4F)cnc23)ccc1C(=O)NC1(CN)CC1` [Example 4, N-(1-(aminomethyl)cyclopropyl)-4-((3-(2,3-difluoro-4-methoxyphenyl)imidazo[1,2-a]pyrazin-8-yl)amino)-2-ethylbenzamide hydrochloride], the IC90 [1] was 320 nM and the IC90 [2] was 274 nM.
With `CCc1cc(Nc2nccn3c(-c4ccc(OC)c(F)c4F)cnc23)ccc1C(=O)N[C@H]1CC[C@@H](NC(=O)[C@@H](N)CCCNC(=N)N)CC1` [Example 5, N-[4-[[(2S)-2-amino-5-guanidino-pentanoyl]amino]cyclo-hexyl]-4-[[3-(2,3-difluoro-4-methoxy-phenyl)imidazo[1,2-a]pyrazin-8-yl]amino]-2-ethyl-benzamide trifluoroacetate] the IC90 [1] was 180 nM and the IC90 [2] was 176 nM.
`CCc1cc(Nc2nccn3c(-c4ccc(OC)c(F)c4F)cnc23)ccc1C(=O)N[C@H]1CC[C@@H](N)CC1` [Example 6, Cis-N-(4-aminocyclohexyl)-4-[[3-(2,3-difluoro-4-methoxy-phenyl)imidazo[1,2-a]pyrazin-8-yl]amino]-2-ethyl-benzamide] showed an IC90 [1] of 88 nM and an IC90 [2] of 88 nM.
For `CCc1cc(Nc2nccn3c(-c4ccc(OC)c(F)c4F)cnc23)ccc1C(=O)N[C@H]1CCC[C@@H]1N` [Example 9, N-((1S,2S)-2-aminocyclopentyl)-4-((3-(2,3-difluoro-4-methoxyphenyl)imidazo[1,2-a]pyrazin-8-yl)amino)-2-ethylbenzamide], the IC90 [1] was 300 nM and the IC90 [2] was 297 nM.
In the case of `CCc1cc(Nc2nccn3c(-c4ccc(OC)c(F)c4F)cnc23)ccc1C(=O)N[C@H]1C[C@@H](N)C1` [Example 11, Cis N-(3-aminocyclobutyl)-4-[[3-(2,3-difluoro-4-methoxy-phenyl)imidazo[1,2-a]pyrazin-8-yl]amino]-2-ethyl-benzamide], the IC90 [1] is reported as 84 nM and the IC90 [2] is reported as 84 nM.
`CCc1cc(Nc2nccn3c(-c4ccc(OC)c(F)c4F)cnc23)ccc1C(=O)NC1CNC1` [Example 12, N-(azetidin-3-yl)-4-[[3-(2,3-difluoro-4-methoxy-phenyl)imidazo[1,2-a]pyrazin-8-yl]amino]-2-ethyl-benzamide] gave an IC90 [1] of 230 nM and an IC90 [2] of 230 nM.
For `CCc1cc(Nc2nccn3c(-c4ccc(OC)c(F)c4F)cnc23)ccc1C(=O)NC1CCNCC1` [Example 13, 4-[[3-(2,3-difluoro-4-methoxy-phenyl)imidazo[1,2-a]pyrazin-8-yl]amino]-2-ethyl-N-(4-piperidyl)benzamide], the IC90 [1] was 280 nM and the IC90 [2] was 276 nM.
Compound `CCc1cc(Nc2nccn3c(-c4ccc(OC)c(F)c4F)cnc23)ccc1C(=O)N[C@H]1C[C@H](N)C1` [Example 14, N-(3-aminocyclobutyl)-4-[[3-(2,3-difluoro-4-methoxy-phenyl)imidazo[1,2-a]pyrazin-8-yl]amino]-2-ethyl-benzamide] has an IC90 [1] of 250 nM and an IC90 [2] of 248 nM.
`CCc1cc(Nc2nccn3c(-c4ccc(OC)c(F)c4F)cnc23)ccc1C(=O)NC1(CNC(=N)N)CC1` [Example 18, N-[1-(carbamimidamidomethyl)cyclopropyl]-4-[[3-(2,3-difluoro-4-methoxyphenyl)imidazo[1,2-a]pyrazin-8-yl]amino]-2-ethylbenzamide] showed an IC90 [1] of 84 nM and an IC90 [2] of 83 nM.
For `CCc1cc(Nc2nccn3c(-c4ccc(OC)c(F)c4F)cnc23)ccc1C(=O)NC1(CNC(C)=N)CC1` [Example 19, 4-[[3-(2,3-difluoro-4-methoxyphenyl)imidazo[1,2-a]pyrazin-8-yl]amino]-N-[1-[(ethanimidoylamino)methyl]cyclopropyl]-2-ethylbenzamide], the IC90 [1] was 150 nM and the IC90 [2] was 154 nM.
Work on `CCc1cc(Nc2nccn3c(-c4ccc(OC)c(F)c4F)cnc23)ccc1C(=O)N[C@H]1CCNC1=O` [Example 30, 4-[[3-(2,3-difluoro-4-methoxyphenyl)imidazo[1,2-a]pyrazin-8-yl]amino]-2-ethyl-N-[(3 S)-2-oxopyrrolidin-3-yl]benzamide] yielded an IC90 [1] of 930 nM.
`COc1ccc(-c2cnc3c(Nc4ccc(C(=O)N[C@H]5CC[C@@H](N)CC5)c(C)c4)nccn23)c(F)c1F` [Example 31, N-(4-aminocyclohexyl)-4-[[3-(2,3-difluoro-4-methoxyphenyl)imidazo[1,2-a]pyrazin-8-yl]amino]-2-methylbenzamide] was tested, and the IC90 [1] was 53 nM and the IC90 [2] was 53 nM.
With `COc1ccc(-c2cnc3c(Nc4ccc(C(=O)NC5CCN(C(=O)[C@@H]6C[C@@H](O)CN6)CC5)c(C)c4)nccn23)c(F)c1F` [Example 32, 4-[[3-(2,3-difluoro-4-methoxyphenyl)imidazo[1,2-a]pyrazin-8-yl]amino]-N-[1-[(2S,4R)-4-hydroxypyrroIidine-2-carbonyl]piperidin-4-yl]-2-methylbenzamide] the IC90 [1] was 66 nM and the IC90 [2] was 66 nM.
Compound `COc1ccc(-c2cnc3c(Nc4ccc(C(=O)N[C@H]5CC[C@@H](NC(=C(C)C)N(C)C)CC5)c(C)c4)nccn23)c(F)c1F` [Example 33, 4-[[3-(2,3-difluoro-4-methoxyphenyl)imidazo[1,2-a]pyrazin-8-yl]amino]-N-[4-[[1-(dimethylamino)-2-methylprop-1-enyl]amino]cyclohexyl]-2-methylbenzamide;formic acid] has an IC90 [1] of 75 nM and an IC90 [2] of 75 nM.
`COc1ccc(-c2cnc3c(Nc4ccc(C(=O)N[C@H]5CC[C@@H](NC(=O)[C@@H]6C[C@@H](O)CN6)CC5)c(C)c4)nccn23)c(F)c1F` [Example 34, (2S,4R)-N-[4-[[4-[[3-(2,3-difluoro-4-methoxyphenyl)imidazo[1,2-a]pyrazin-8-yl]amino]-2-methylbenzoyl]amino]cyclohexyl]-4-hydroxypyrrolidine-2-carboxamide] gave an IC90 [1] of 54 nM and an IC90 [2] of 54 nM.
For `COc1ccc(-c2cnc3c(Nc4ccc(C(=O)N[C@H]5C[C@@H](N)C5)c(C)c4)nccn23)c(F)c1F` [Example 35, N-(3-aminocyclobutyl)-4-[[3-(2,3-difluoro-4-methoxyphenyl)imidazo[1,2-a]pyrazin-8-yl]amino]-2-methylbenzamide], the IC90 [1] was 63 nM and the IC90 [2] was 62 nM.
Compound `CCc1cc(Nc2nccn3c(-c4ccc(OC)c(F)c4F)cnc23)ccc1C(=O)N[C@H]1C[C@@H](NC(=O)[C@@H](N)CCCNC(=N)N)C1` [Example 37, N-[3-[[(2S)-2-amino-5-carbamimidamidopentanoyl]amino]cyclobutyl]-4-[[3-(2,3-difluoro-4-methoxyphenyl)imidazo[1,2-a]pyrazin-8-yl]amino]-2-ethylbenzamide;2,2,2-trifluoroacetic acid] has an IC90 [1] of 99 nM and an IC90 [2] of 99 nM.
`COc1ccc(-c2cnc3c(Nc4ccc(C(=O)N[C@@H]5CCNC5)c(C)c4)nccn23)c(F)c1F` [Example 38, 4-[[3-(2,3-difluoro-4-methoxyphenyl)imidazo[1,2-a]pyrazin-8-yl]amino]-2-methyl-N-[(3R)-pyrrolidin-3-yl]benzamide] showed an IC90 [1] of 160 nM and an IC90 [2] of 162 nM.
Compound `CCc1cc(Nc2nccn3c(-c4ccc(OC)c(F)c4F)cnc23)ccc1C(=O)NC1CCC1N` (centres unmarked) [Example 39, N-(2-aminocyclobutyl)-4-[[3-(2,3-difluoro-4-methoxyphenyl)imidazo[1,2-a]pyrazin-8-yl]amino]-2-ethylbenzamide] has an IC90 [1] of 290 nM and an IC90 [2] of 288 nM.
`CCc1cc(Nc2nccn3c(-c4ccc(OC)c(F)c4F)cnc23)ccc1C(=O)NC1(CN)COC1` [Example 40, N-(3-(aminomethyl)oxetan-3-yl)-4-((3-(2,3-difluoro-4-methoxyphenyl)imidazo[1,2-a]pyrazin-8-yl)amino)-2-ethylbenzamide hydrochloride] showed an IC90 [1] of 482 nM.
`COc1ccc(-c2cnc3c(Nc4ccc(C(=O)N(C)CCC(=O)N5CCNCC5)c(C)c4)nccn23)cc1F` [Reference Example 10, 4-[[3-(3-fluoro-4-methoxy-phenyl)imidazo[1,2-a]pyrazin-8-yl]amino]-N,2-dimethyl-N-(3-oxo-3-piperazin-1-yl-propyl)benzamide] gave an IC90 [1] of 290 nM and an IC90 [2] of 290 nM.
